# Tests used:
# [1] = system: ES-2 IGF2BP1-KO cells re-expressing GFP-IGF2BP1C253/336A; test: 2D growth / proliferation (cell confluence, IncuCyte S3), cells re-expressing C253/336A mutant; assay type: cell-based
# Protocol: (§1) Statistical significance was analyzed by logrank test. […] Modified cysteines are highlighted in bold and upper position. […] Right: Local atomic fluctuations around cysteine residues. […] (A-C) RNA-dependent protein-protein association assay. […] EV (1) indicates mock-transfected controls. Representative Western (A) and Northern (C) blots are shown. P, pulldown; I, input. […] A representative Western blot analysis is shown in (C). […] Six mice were analyzed per condition. Error bars indicate standard deviation. […] Error bars indicate standard deviation of three analyses. […] DMSO-treated cells were used for comparisons. […] (*) p < 0.05, (**) p < 0.01, (***) p < 0.001. […] Data represent the mean ± SD (n = 6). […] (**) p < 0.01.
# (§2) To probe if the identified residues are druggable targets, a search for chemical probes with exquisite chemo- and regioselectivity to cysteine residues was performed and their ability to target IGF2BP1's Cys253 and Cys336 was tested, whilst functioning as inhibitors. […] Both probes are known to covalently modify cysteine residues in a highly site-specific manner. […] The initial assay was set to observe if the probes influence the 2D growth, determined here as cell density, of ES-2 cells in a IGF2BP1-Cys253/336-dependent manner. IC50 values were determined by measuring the cell viability or cell confluence of cells incubated with increasing concentrations of J2 and J5.
# [2] = system: ES-2 IGF2BP1-KO cells re-expressing GFP-IGF2BP1; test: 2D growth / proliferation (cell confluence, IncuCyte S3), cells re-expressing wild type IGF2BP1; assay type: cell-based
# Protocol: as §1
# To probe if the identified residues are druggable targets, a search for chemical probes with exquisite chemo- and regioselectivity to cysteine residues was performed and their ability to target IGF2BP1's Cys253 and Cys336 was tested, whilst functioning as inhibitors. […] Both probes are known to covalently modify cysteine residues in a highly site-specific manner. […] These probes were then used in ES-2 IGF2BP1 KO cells, re-expressing either the wild type version of IGF2BP1 or the C253/336A mutant. The initial assay was set to observe if the probes influence the 2D growth, determined here as cell density, of ES-2 cells in a IGF2BP1-Cys253/336-dependent manner. IC50 values were determined by measuring the cell viability or cell confluence of cells incubated with increasing concentrations of J2 and J5.
# [3] = Drug-likeness assessment / solubility in the assays; assay type: physicochemical
# [4] = system: tumors bearing ES-2 cells re-expressing the C253/336A mutant; test: Xenograft tumor growth, ES-2 cells re-expressing C253/336A mutant; assay type: in vivo, female SCID mice; settings: 0.1 mg/kg daily intraperitoneally
# [5] = system: ES-2 IGF2BP1-KO cells re-expressing the GFP-IGF2BP1C253/336A mutant; test: Cell viability (CellTiter Glo), cells re-expressing C253/336A mutant; assay type: cell-based; settings: cell viability 72h, read-out: IC50C253/336A
# Protocol: as §1, §2
# [6] = system: xenografts bearing ES-2 cells re-expressing the wild-type IGF2BP1 (GFP-IGF2BP1); settings: 0.1 mg/kg daily intraperitoneally; GFP-IGF2BP1 tumors
# [7] = system: panel of cancer cell lines; test: Cell proliferation (IncuCyte S3 confluence) in a panel of cancer cell lines; assay type: cell-based; settings: 72h
# [8] = system: ES-2 IGF2BP1-KO cells re-expressing the wild type GFP-IGF2BP1; test: Cell viability (CellTiter Glo), cells re-expressing wild type IGF2BP1; assay type: cell-based
# Protocol: as §1
# To probe if the identified residues are druggable targets, a search for chemical probes with exquisite chemo- and regioselectivity to cysteine residues was performed and their ability to target IGF2BP1's Cys253 and Cys336 was tested, whilst functioning as inhibitors. […] The initial assay was set to observe if the probes influence the 2D growth, determined here as cell density, of ES-2 cells in a IGF2BP1-Cys253/336-dependent manner. IC50 values were determined by measuring the cell viability or cell confluence of cells incubated with increasing concentrations of J2 and J5.
# [9] = system: ES-2 IGF2BP1-KO cells re-expressing GFP-IGF2BP1C253/336A; test: Spheroid Matrigel invasion assay, cells re-expressing C253/336A mutant; assay type: cell-based; settings: up to 6 µM; 24h post-treatment
# IGF2BP1 = target: T1, IGF2BP1 (Homo sapiens, UniProt Q9NZI8); test: Site-specific protein modification (Cys-to-Dha conversion), LC-MS/MS readout; assay type: biochemical
# T1 construct: made in house
# Protocol: as §1
# A multiple-Cys-containing RNA-binding protein with a recognized role in cancer is selected, for example and not limited to, the Insulin-like growth factor 2 mRNA binding protein 1 (IGF2BP1). It is then expressed in bacteria (not limited to), purified and submitted to site-specific protein modification reactions in vitro using cysteine-directed probes (Cys-to-Dha conversion), for example and not limited to, the compound 2,5 dibromohexanediamide (1). The reactions are performed in mild conditions, PBS buffer pH 8.0 for 1 h at 37∘C, using increasing equivalents of 1. The resulting reaction is then purified with a spin column and submitted to trypsin digestion followed by LC-MS/MS using standard protocols. The identification of Dha-modified peptides is performed by adding the corresponding mass shift of 33.9878 m/z (Dha) as a post-translational modification in the global search for modifications. The Dha conversion of specific cysteine residues is located within the primary sequence of the protein of interest (POI) to uncover preferentially modified cysteine residues.
# T1 sequence (Q9NZI8 whole entry): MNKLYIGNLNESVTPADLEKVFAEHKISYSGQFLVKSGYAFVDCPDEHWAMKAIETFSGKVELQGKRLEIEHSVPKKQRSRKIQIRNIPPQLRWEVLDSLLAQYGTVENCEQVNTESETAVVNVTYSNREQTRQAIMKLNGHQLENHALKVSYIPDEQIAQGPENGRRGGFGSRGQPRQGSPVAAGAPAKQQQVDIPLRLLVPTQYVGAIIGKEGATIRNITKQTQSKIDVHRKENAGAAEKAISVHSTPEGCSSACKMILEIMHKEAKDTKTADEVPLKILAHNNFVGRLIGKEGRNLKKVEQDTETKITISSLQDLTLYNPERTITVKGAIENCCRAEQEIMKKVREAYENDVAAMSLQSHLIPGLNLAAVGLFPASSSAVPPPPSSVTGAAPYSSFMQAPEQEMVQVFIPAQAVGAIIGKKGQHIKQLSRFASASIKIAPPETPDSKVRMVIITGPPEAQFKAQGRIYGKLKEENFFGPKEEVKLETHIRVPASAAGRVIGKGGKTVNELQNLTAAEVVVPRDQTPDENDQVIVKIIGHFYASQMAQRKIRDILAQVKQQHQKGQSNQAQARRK
"equivalents at which Cys253 was modified (IGF2BP1; PBS buffer pH 8.0, 1 h, 37°C) [eq]","equivalents at which Cys336 was modified (IGF2BP1; PBS buffer pH 8.0, 1 h, 37°C) [eq]","equivalents at which Cys336 was modified, in some reactions (IGF2BP1; in some reactions) [eq]",equivalents at which almost all cysteines (exception Cys110) were modified (IGF2BP1; in vitro),SMILES,"growth of cells ([1]; 1µM, cells expressing the C253/336A mutant)","IC50 ([1]; Homo sapiens, ES-2 cells expressing the C253/336A mutant, confluence at 72h) [µM]","growth of ES-2 cells ([2]; 1µM, cells re-expressing the wild type protein)","IC50 ([2]; cells expressing wild type IGF2BP1, confluence at 72h, DMSO = 100% growth) [µM]",selective cytoreductive effect ([2]; wild type vs C253/336A mutant cells) [fold],solubility [3],"anti-tumor effect (tumor volume, tumor mass) [4]",IC50 [5] [µM],"anti-tumor effect (tumor volume, tumor mass) [6]",potency in a panel of cancer cell lines [7],"IC50 ([8]; cell viability 72h, CellTiter Glo) [µM]",selectivity to ES-2 cells re-expressing the wild type IGF2BP1 ([8]; wild type vs C253/336A) [fold],invasion [9]
–,–,–,–,"O=C(/C=C/C(=O)c1ccccc1)NCCNc1ccc([N+](=O)[O-])c2nonc12 [J2, (E)-N-(2-((7-nitrobenzo[c][1,2,5]oxadiazol-4-yl)amino)ethyl)-4-oxo-4-phenylbut-2-enamide]",no substantial impact,2.2,strong impairment,0.84,2,solubility problems,–,–,–,–,–,–,–
–,–,–,–,"CCNC(=O)/C=C/C(=O)c1ccccc1 [J5, (E)-N-ethyl-4-oxo-4-phenylbut-2-enamide]",–,–,–,–,–,much higher solubility,absolutely no effect,1.75,strong anti-tumor effect,potency as anti-cancer drug in all of them,0.97,1.8,unchallenged invasion
200,300,200,above 500 eq,"NC(=O)C(Br)CCC(Br)C(N)=O (stereo not drawn) [compound 1, 2,5 dibromohexanediamide]",–,–,–,–,–,–,–,–,–,–,–,–,–
